Assay results: patent publication US8778966B2, “Quinolinone derivatives as PARP and tank inhibitors” (Janssen Pharmaceutica, NV, priority 2007, dated 2014)

Test system: PC-3 cells
Experiment: Antiproliferative activity, Alamar Blue assay, PC-3 cells
Assay type: cell-based, human
Conditions: for IC50: Homo sapiens, PC-3, PC3 cells, read-out: PC3 antiproliferative activity pIC50 (converted); for PC3 antiproliferative activity pIC50: PC3 cells
Method in brief: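 PC-3 cells seeded at 4.5×10^3 cells/ml, left to adhere 24 hr, then exposed to compound for 4 days. Resazurin (Alamar Blue) added for a further 24 hrs at 37° C; fluorescence read at 540/590 nm. Viability as % of untreated control, mean of 3 wells; IC50 by probit analysis, reported as pIC50.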

## Cc1cc2ccc(C(C)(C#N)C3CCc4c(C#N)cccc43)cc2[nH]c1=O (racemic) [Compound 393]
  IC50: 10000 nM

## CCc1cc2ccc([C@@](C)(C#N)CN(C)Cc3ccc(C#N)cc3)cc2[nH]c1=O (single isomer, unassigned) [Compound 253]
  IC50: 158 nM

## CCc1cc2ccc(C(C)(C#N)C3CCc4ccc(Br)cc43)cc2[nH]c1=O (single isomer, unassigned) [Compound 380]
  PC3 antiproliferative activity pIC50: 5.5

## CCc1cc2ccc(C(C)(C#N)C3CCc4ccc(Br)cc43)cc2[nH]c1=O (single isomer, unassigned) [Compound 381]
  PC3 antiproliferative activity pIC50: 7.0

## Cc1cc2ccc([C@](C)(C#N)C3CCc4cccnc43)cc2[nH]c1=O (single isomer, unassigned) [Compound 388]
  IC50: 10000 nM

## CCc1cc2ccc([C@](C)(C#N)[C@H]3CCOc4ccccc43)cc2[nH]c1=O (single isomer, unassigned) [Compound 394]
  IC50: 10000 nM

## CCc1cc2ccc([C@@](C)(C#N)[C@H]3CCOc4ccccc43)cc2[nH]c1=O (single isomer, unassigned) [Compound 395]
  IC50: 794 nM

## CCc1cc2ccc([C@](C)(C#N)C[C@H]3CCc4ccccc4O3)cc2[nH]c1=O (single isomer, unassigned) [Compound 396]
  IC50: 7940 nM

## CCc1cc2ccc(C(C)(C#N)Cc3cccc(-c4cnn(C)c4)c3)cc2[nH]c1=O (stereo not drawn) [Compound 17]
  IC50: 10000 nM

## CCc1cc2ccc(C(C)(C#N)Cc3cccc(-c4ccccc4)c3)cc2[nH]c1=O (stereo not drawn) [Compound 18]
  IC50: 1260 nM

## CCc1cc2ccc(C(C)(C#N)Cc3cccc(I)c3)cc2[nH]c1=O (stereo not drawn) [Compound 19]
  IC50: 158 nM

## CCc1cc2ccc(C(C)(C#N)Cc3cccc(N(C)C)c3)cc2[nH]c1=O (stereo not drawn) [Compound 20]
  IC50: 200 nM

## CCc1cc2ccc(C(C)(C#N)Cc3cccc(N4CCOCC4)c3)cc2[nH]c1=O (stereo not drawn) [Compound 21]
  IC50: 2000 nM

## CCc1cc2ccc(C(C)(C#N)Cc3cccc(O)c3)cc2[nH]c1=O (stereo not drawn) [Compound 22]
  IC50: 7940 nM

## CCc1cc2ccc(C(C)(C#N)Cc3cccc(OCc4ccccc4)c3)cc2[nH]c1=O (stereo not drawn) [Compound 23]
  IC50: 5010 nM

## CCc1cc2ccc(C(C)(C#N)Cc3cccc(OCCOC)c3)cc2[nH]c1=O (stereo not drawn) [Compound 24]
  IC50: 1000 nM

## CCC(=O)c1cccc(CC(C)(C#N)c2ccc3cc(C)c(=O)[nH]c3c2)c1 (stereo not drawn) [Compound 173]
  IC50: 398 nM

## CCc1cc2ccc(C(C)(C#N)Cc3cc(C)cc(C#N)c3)cc2[nH]c1=O (stereo not drawn) [Compound 174]
  IC50: 200 nM

## CCc1cc2ccc(C(C)(C#N)Cc3cccc(S(F)(F)(F)(F)F)c3)cc2[nH]c1=O (stereo not drawn) [Compound 177]
  IC50: 3160 nM

## CCc1cc2ccc(C(C)(C#N)Cc3cccc(C4(N)CC4)c3)cc2[nH]c1=O (stereo not drawn) [Compound 180]
  IC50: 3160 nM

## CCc1cc2ccc(C(C)(C#N)CCCN(C)C(=O)c3ccc(F)cc3)cc2[nH]c1=O (stereo not drawn) [Compound 188]
  IC50: 2510 nM

## CCc1cc2ccc([C@](C)(C#N)CN(C)Cc3ccc(C#N)cc3)cc2[nH]c1=O [Compound 190]
  IC50: 10000 nM

## Cc1cc2ccc(C(C)(C#N)Cc3cccc(Oc4ncccn4)c3)cc2[nH]c1=O (stereo not drawn) [Compound 191]
  IC50: 501 nM

## Cc1cc2ccc(C(C)(C#N)Cc3cccc(Oc4ccccc4)n3)cc2[nH]c1=O (stereo not drawn) [Compound 193]
  IC50: 631 nM

## CCc1cc2cc(C)c(C(C)(C#N)Cc3cccc(C#N)n3)cc2[nH]c1=O (stereo not drawn) [Compound 208]
  IC50: 10000 nM

## CCc1cc2ccc(C(C)(C#N)Cc3ccc(Cl)nc3Cl)cc2[nH]c1=O (stereo not drawn) [Compound 212]
  IC50: 5010 nM

## COc1cc2ccc(C(C)(C#N)Cc3cccc(C#N)n3)cc2[nH]c1=O (stereo not drawn) [Compound 218]
  IC50: 1260 nM

## CCc1cnc(OCCC(C)(C#N)c2ccc3cc(CC)c(=O)[nH]c3c2)nc1 (stereo not drawn) [Compound 222]
  IC50: 3980 nM

## CCc1cc2ccc(C(C)(C#N)CCOc3nccc(OC)n3)cc2[nH]c1=O (stereo not drawn) [Compound 223]
  IC50: 6310 nM

## CCc1cc2ccc(C(C)(C#N)Cc3ccc(OC)nc3Cl)cc2[nH]c1=O (stereo not drawn) [Compound 224]
  IC50: 3160 nM

## CCc1cc2ccc(C(C)(C#N)Cc3ccc(Cl)nc3OC)cc2[nH]c1=O (stereo not drawn) [Compound 225]
  IC50: 794 nM

## CCc1cc2ccc(C(C)(C#N)Cc3cccc(N4CCCC4)n3)cc2[nH]c1=O (stereo not drawn) [Compound 226]
  IC50: 1580 nM

## Cc1cc2ccc(C(C)(C#N)Cc3cccc(C#N)n3)cc2[nH]c1=O (stereo not drawn) [Compound 227]
  IC50: 631 nM

## CCc1cc2ccc(C(C)(C#N)Cc3cc(OC)cc(OC)n3)cc2[nH]c1=O (stereo not drawn) [Compound 232]
  IC50: 251 nM

## CCc1cc2ccc(C(C)(C#N)Cc3cc(C#N)cc4c3OCC4)cc2[nH]c1=O (stereo not drawn) [Compound 236]
  IC50: 501 nM

## CCc1cc2ccc(C(C)(C#N)Cc3cc4ccccc4nn3)cc2[nH]c1=O (stereo not drawn) [Compound 238]
  IC50: 3980 nM

## Cc1cc2ccc([C@@](C)(C#N)[C@@H]3CCc4cc(Br)ccc43)cc2[nH]c1=O [Compound 240]
  IC50: 10000 nM

## Cc1cc2ccc([C@@](C)(C#N)[C@H]3CCc4cc(Br)ccc43)cc2[nH]c1=O [Compound 241]
  IC50: 794 nM

## Cc1cc2ccc([C@](C)(C#N)[C@@H]3CCc4cc(Br)ccc43)cc2[nH]c1=O [Compound 242]
  IC50: 79.4 nM

## Cc1cc2ccc(C(C)(C#N)C3CCc4cc(Br)ccc43)cc2[nH]c1=O (stereo not drawn) [Compound 244]
  PC3 antiproliferative activity pIC50: 6.6

## Cc1cc2ccc(C(C)(C#N)C3CCc4c(Br)cccc43)cc2[nH]c1=O (stereo not drawn) [Compound 248]
  IC50: 794 nM

## Cc1cc2ccc(C(C)(C#N)C3CCc4ccc(Br)cc43)cc2[nH]c1=O (stereo not drawn) [Compound 249]
  IC50: 251 nM

## Cc1cc2ccc(C(C)(C#N)C3CCc4ccc(C#N)cc43)cc2[nH]c1=O (stereo not drawn) [Compound 250]
  IC50: 316 nM

## C=C(C)c1cccc(CC(C)(C#N)c2ccc3cc(CC)c(=O)[nH]c3c2)c1 (stereo not drawn) [Compound 254]
  IC50: 794 nM

## CCc1cc2ccc(C(C#N)(CC)Cc3cccc(C#N)c3)cc2[nH]c1=O (stereo not drawn) [Compound 265]
  IC50: 1000 nM

## CCc1cc2ccc(C(C)(C#N)Cc3cc(F)cc(C#N)c3)cc2[nH]c1=O (stereo not drawn) [Compound 266]
  IC50: 398 nM

## CCc1cc2ccc(C(C#N)(CC)Cc3cccc(F)c3)cc2[nH]c1=O (stereo not drawn) [Compound 270]
  IC50: 3160 nM

## Cc1cc2ccc(C(C)(C#N)CCCCOc3ccccc3)cc2[nH]c1=O (stereo not drawn) [Compound 272]
  IC50: 5010 nM

## Cc1cc2ccc(C(C)(C#N)Cc3cc(F)cc(F)c3)cc2[nH]c1=O (stereo not drawn) [Compound 282]
  IC50: 1000 nM

## CCc1cc2ccc(C(C)(C#N)Cc3cc(C)cc(Br)c3)cc2[nH]c1=O (stereo not drawn) [Compound 284]
  IC50: 200 nM

## CCc1cc2ccc(C(C#N)(CC)Cc3cccc(OC)c3)cc2[nH]c1=O (stereo not drawn) [Compound 287]
  IC50: 1260 nM

## CCc1cc2ccc(C(C)(C#N)CN(C)CCc3cn(C)c4ccccc34)cc2[nH]c1=O (stereo not drawn) [Compound 303]
  IC50: 3160 nM

## Cc1cc2ccc(C(C)(C#N)Cc3cccc(Oc4ccccn4)c3)cc2[nH]c1=O (stereo not drawn) [Compound 304]
  IC50: 398 nM

## CCOc1cc(N(C)C)nc(CC(C)(C#N)c2ccc3cc(CC)c(=O)[nH]c3c2)n1 (stereo not drawn) [Compound 312]
  IC50: 1000 nM

## CCOc1cc(C#N)nc(CC(C)(C#N)c2ccc3cc(CC)c(=O)[nH]c3c2)n1 (stereo not drawn) [Compound 315]
  IC50: 1260 nM

## CCc1cc2ccc(C(C#N)(CC)Cc3nc(C#N)cc(OC)n3)cc2[nH]c1=O (stereo not drawn) [Compound 316]
  IC50: 1260 nM

## CCc1cc2ccc(C(C#N)(CC)Cc3nc(OC)cc(OC)n3)cc2[nH]c1=O (stereo not drawn) [Compound 321]
  IC50: 398 nM
